Literature values in publication PMC2483489 (Acta Crystallographica Section D: Biological Crystallography, 2006).

Key:
[1] = system: resistance mutants isolated from relapsed imatinib patients; conditions: ref Weisberg et al., 2006, Kantarjian et al.
Irk = conditions: statement in words, no reference given
Flt-3 = conditions: statement in words, no reference given
c-Kit = conditions: ref Mol et al., 2004
KDR = conditions: statement in words, no reference given

| Binding to Irk (Irk) | Binding to Flt-3 (Flt-3) | Binding to c-Kit (c-Kit) | Binding to KDR (KDR) | SMILES | Activity against imatinib-resistance mutants [1] |
| --- | --- | --- | --- | --- | --- |
| – | – | – | – | Cc1cn(-c2cc(NC(=O)c3ccc(C)c(Nc4nccc(-c5cccnc5)n4)c3)cc(C(F)(F)F)c2)cn1 [NVP-AMN107, nilotinib] | active against all but one of the resistance mutants |
| does not bind | does not bind | does bind | does not bind | Cc1ccc(NC(=O)c2ccc(CN3CCN(C)CC3)cc2)cc1Nc1nccc(-c2cccnc2)n1 [Imatinib, imatinib] | – |
